Measurements as given in patent publication US8163795B2, “Chroman derivatives, medicaments and use in therapy” (Marshall Edwards, Inc., priority 2004, dated 2012).
Like-named read-outs stand apart in the source and are kept apart here.

How the values were obtained:
[1] = system: Neonatal foreskin fibroblasts (NFF); assay: Proliferation assay (MTT), normal cell toxicity; format: cell-based, Human
Description: (§1) The normal cell line NFF (neonatal foreskin fibroblasts) was a sift from Dr. Peter Parsons (Queensland Institute of Medical Research). RK (rabbit kidney) cells were obtained from Miller Whalley (Macquarie University). Both cell lines were cultured in RPMI supplemented with 10% FCS(CSL, Australia), penicillin (100 U/ml), streptomycin ([…]), L-glutamine (2 mM) and sodium bicarbonate (1.2 g/L), and cultured at 37° C. in a humidified atmosphere of 5% CO2.
(§2) IC50 values were determined for each cell line. Cells were seeded in 96-well plates at an appropriate cell density as determined from growth kinetics analysis and cultured for 5 days in the absence and presence of the test compounds. Cell proliferation was assessed after the addition of 20 μl of 3-4,5 dimethylthiazol-2,5-diphenyl tetrazolium bromide (MTT, 2.5 mg/ml in PBS, Sigma) for 3-4 hrs at 37° C. according to manufacturer's instructions. IC50 values were calculated from semi-log plots of % of control proliferation on the y-axis against log dose on the x-axis.

rabbit kidney cells (RK) = assay: Proliferation assay (MTT), normal cell toxicity; format: cell-based
Description: as §1, §2

[2] = system: CP70 ovarian cancer cell line; assay: Proliferation assay (MTT); format: cell-based; conditions: Table 2.2 (further studies); Ovarian CP70; read-out: IC50
4405 melanoma cell line = assay: Proliferation assay (MTT); format: cell-based; conditions: Table 15; melanoma 4405
Description: (§3) All cultures were supplemented with 10% FCS (fetal calf serum CSL, Australia), penicillin (100 U/ml), streptomycin ([…]), L-glutamine (2 mM) and sodium bicarbonate (1.2 g/L), and cultured at 37° C. in a humidified atmosphere of 5% CO2. All cell lines were purchased from ATCC (Maryland, USA) except where noted.
as §2

CCRF-CEM (Leukemic) = assay: Proliferation assay (MTT); format: cell-based; conditions: Homo sapiens, CCRF-CEM, Table 2.2; Leukaemia CCRF-CEM
Description: as §3, §2

HT-29 (Colorectal) = assay: Proliferation assay (MTT); format: cell-based; conditions: Homo sapiens, HT-29, Table 2.2; Colorectal HT-29
Description: as §3, §2

HTB-138 (Glioma) = assay: Proliferation assay (MTT); format: cell-based; conditions: Table 2.2; Glioma HTB-138
Description: as §3, §2

IGR-3 (Melanoma) = assay: Proliferation assay (MTT); format: cell-based; conditions: Table 15; melanoma IgR3
Description: as §3, §2

MM96L melanoma cell line = assay: Proliferation assay (MTT); format: cell-based; conditions: Homo sapiens, Table 15
Description: as §3, §2

NCI-H460 (Lung) = assay: Proliferation assay (MTT); format: cell-based; conditions: Homo sapiens, NCI-H460, Table 2.2; NSC Lung NCI-H460
Description: as §3, §2

[3] = system: PC3 prostate cancer cell line; assay: Proliferation assay (MTT); format: cell-based; conditions: Table 2.2
Description: as §3, §2

RM melanoma cell line = assay: Proliferation assay (MTT); format: cell-based; conditions: Table 15
Description: as §3, §2

[4] = system: SKMe128 melanoma cell line; assay: Proliferation assay (MTT); format: cell-based; conditions: Table 15
Description: as §3, §2

[5] = system: MDA-MB-468 breast cancer cell line; assay: Proliferation assay (MTT); format: cell-based; conditions: Homo sapiens, MDA-MB-468, Table 2.2; Breast MDA-MB-468; read-out: IC50
[6] = system: HPAC (CRL-2119) pancreatic cancer cell line; assay: Proliferation assay (MTT); format: cell-based, human; conditions: Homo sapiens, HPAC, Table 2.2; Pancreatic HPAC; read-out: IC50
MM200 melanoma cell line = assay: Proliferation assay (MTT); format: cell-based; conditions: read-out: IC50
A2058 melanoma cell line = assay: Proliferation assay (MTT); format: cell-based; conditions: Homo sapiens, A2058, Table 15; melanoma A2058
cancer cell lines = assay: Proliferation assays, statements over several cancer cell lines; format: cell-based; conditions: all melanoma cell lines tested to date
Description: as §2

[7] = HMC and HHC pharmacokinetics, oral, human patients; format: in vivo; conditions: plasma
Description: Human patients were orally dosed with 200 mg of either HMC or HHC. For each challenged patient, blood was taken over a 6 hour period and the results averaged to characterise the plasma pharmacokinetics.

CP70 (Ovarian) = assay: HHC as chemosensitiser; format: cell-based
Text: (§4) HHC was screened as chemosensitiser against a panel cell lines representative of a range cancer indications using a panel of cytotoxics commonly used in the treatment of cancer.

HPAC (Pancreatic) = assay: HHC as chemosensitiser; format: cell-based
Text: as §4

HTB-13.8 (Glioma) = assay: HHC as chemosensitiser; format: cell-based; conditions: Glioma HTB-13.8
Text: as §4

MDA-468 (Breast) = assay: HHC as chemosensitiser; format: cell-based; conditions: Breast MDA-468
Text: as §4

MM96L (Melanoma) = assay: HHC as chemosensitiser; format: cell-based
Text: as §4

PC3 (Prostate) = assay: HHC as chemosensitiser; format: cell-based
Text: as §4

[8] = system: cancer cell lines from different pathologies; assay: HHC as chemosensitiser, statements by cancer indication; format: cell-based
Text: as §4

PGE2 = assay: Eicosanoid synthesis in LPS-stimulated murine macrophages (RAW 264.7); format: cell-based, mouse; conditions: 10 μM; negative values indicate inhibition
Description: (§5) The mouse macrophage cell line RAW 264.7 was cultured in DMEM supplemented with foetal calf serum (FCS), 2 mM glutamine and 50 U/ml penicillin/streptomycin. Subconfluent cells were detached from the flask by gentle scraping and 24-well plates seeded at 5×10^5 cells per well and allowed to adhere for 1 hr. Cells were then treated either test compound at a concentration of 10 μM (in 0.025% DMSO) or vehicle alone, and incubated for 1 hr. LPS 50 ng/ml (LPS—Sigma-Aldrich) was then added. After incubation for 16 hrs, culture media was collected and stored at −80° C. for ecosanoid measurements using enzyme immunometric assays (PGE2 and TXB2—Cayman Chemical).
(§6) Table 16: Percentage change in eicosanoid synthesis after incubating test compound at 10 μM compared with incubation with vehicle alone.

TXB2 = assay: as above; format: cell-based, mouse; conditions: 10 μM; negative values indicate inhibition
Description: as §5, §6

[9] = human, po, humans dosed orally with 200 mg

Oc1ccc(C2COc3cc(O)ccc3C2c2ccc(O)cc2)cc1 (stereo not drawn) [Compound 11, 3-(4-hydroxyphenyl)-4-(4-hydroxyphenyl)chroman-7-ol]
IC50 ([1]; Homo sapiens, Fibroblast, Table 1, Neonatal Foreskin Fibroblasts (Human, NFF), read-out: IC50): 60800 nM
IC50 ([1]; NFF): non-toxic
IC50 (rabbit kidney cells (RK); Oryctolagus cuniculus, Table 1, Rabbit Kidney, read-out: IC50): > 150000 nM
IC50 (rabbit kidney cells (RK); rabbit kidney cells): non-toxic
IC50 [2]: 1100 ± 900 nM
IC50 (4405 melanoma cell line): 500 nM
IC50 (CCRF-CEM (Leukemic)): 600 ± 10 nM
IC50 (HT-29 (Colorectal)): 2500 ± 1000 nM
IC50 (HTB-138 (Glioma)): 520 ± 100 nM
IC50 (IGR-3 (Melanoma)): 200 nM
IC50 (MM96L melanoma cell line): 200 ± 90 nM
IC50 (NCI-H460 (Lung)): 500 ± 100 nM
IC50 [3]: 880 ± 400 nM
IC50 (RM melanoma cell line): 390 ± 280 nM
IC50 [4]: 360 ± 340 nM
IC50 [5]: 1000 ± 100 nM
IC50 [6]: 31600 ± 27000 nM
IC50 (MM200 melanoma cell line; Table 2.2, Melanoma MM200): 600 ± 300 nM
IC50 (MM200 melanoma cell line; Table 15, melanoma MM200, monotherapy): 660 ± 280 nM
IC50 (A2058 melanoma cell line): 340 nM
IC50 (cancer cell lines): < 1000 nM
Cmax [7, 9]: 341 ng/mL
Tmax [7, 9]: 2.67 h
t1/2 ([7]; humans dosed orally with 200 mg): 3.26 h
half-life ([7]; human patients, 200 mg oral, initial results): 3.26 h
Synergy of HHC with Cisplatin (CP70 (Ovarian)): SSSSS (SSSSS = Synergy)
Synergy of HHC with Gemcitabine (CP70 (Ovarian)): SSSSS (SSSSS = Synergy)
Synergy of HHC with Paclitaxel (CP70 (Ovarian); listed as HHC): n.o. (n.o. = not observed)
Synergy of HHC with Cisplatin (HPAC (Pancreatic)): n.o. (n.o. = not observed)
Synergy of HHC with Gemcitabine (HPAC (Pancreatic)): SSSSS (SSSSS = Synergy)
Synergy of HHC with Paclitaxel (HPAC (Pancreatic)): n.o. (n.o. = not observed)
Synergy of HHC with Cisplatin (HTB-13.8 (Glioma)): n.o. (n.o. = not observed)
Synergy of HHC with Gemcitabine (HTB-13.8 (Glioma)): SSSSS (SSSSS = Synergy)
Synergy of HHC with Paclitaxel (HTB-13.8 (Glioma); listed as HHC): n.o. (n.o. = not observed)
Synergy of HHC with Gemcitabine (MDA-468 (Breast)): SSSSS (SSSSS = Synergy)
chemosensitisation to cisplatin, carboplatin and decarbazine (MM96L (Melanoma); MM96L melanoma cell line): strongly chemosensitise
Synergy of HHC with Carboplatin (MM96L (Melanoma); Melanoma MM96L): SSSSS (SSSSS = Synergy)
Synergy of HHC with Cisplatin (MM96L (Melanoma); Melanoma MM96L): SSSSS (SSSSS = Synergy)
Synergy of HHC with Dacarbazine (MM96L (Melanoma); Melanoma MM96L): SSSSS (SSSSS = Synergy)
Synergy of HHC with Cisplatin (PC3 (Prostate)): SSSSS (SSSSS = Synergy)
Synergy of HHC with Gemcitabine (PC3 (Prostate)): SSSSS (SSSSS = Synergy)
Synergy of HHC with Paclitaxel (PC3 (Prostate)): n.o. (n.o. = not observed)
synergy HHC:paclitaxel ([8]; breast and colorectal cancer, and melanoma cell lines): Moderate synergy
synergy HHC:cisplatin ([8]; colorectal cancer cell lines): mild synergy
synergy HHC:cisplatin ([8]; ovarian and prostate cancer): Strong synergy
synergy HHC:paclitaxel ([8]; ovarian cancer and glioma cell lines): Equivocal synergy
chemosensitisation to gemcitabine ([8]; ovarian, prostate, breast and pancreatic cancers, and glioma): strongly chemosensitise
synergy HHC:cisplatin ([8]; pancreatic cancer and glioma): synergy was not observed
synergy HHC:paclitaxel ([8]; prostate and pancreatic cancer cell lines): no evidence of synergy
Percentage change in PGE2 synthesis vs vehicle alone (PGE2): 27.2%
Percentage change in TXB2 synthesis vs vehicle alone (TXB2): 51.4%
